# Values joined by “and” are separate entries in the source; they are usually repeats but may differ in a detail not shown here. Identical values can stand only once.
# What was measured:
# [1] = ~400 MBq ^18F-TFB synthesized by the conventional method, human subject; Jauregui-Osoro et al. (14); cited from earlier work
# [2] = Radiation dosimetry estimation (organ residence times, OLINDA); assay type: in vivo, human
# Description: Radiation dosimetry estimates were calculated from organ residence times using OLINDA software (Ver. 1.1), assuming a bladder voiding interval of 3.5 h. Gender-specific organ masses for the conversion of SUV to disintegrations per organ per unit radioactivity administered (Bq-hr/Bq) were taken from Schlein et al. (15).
# Bladder residence time was estimated by the bladder emptying model within the OLINDA software, assuming a 3.5 h bladder voiding period. The dose-critical organ is thyroid, with dose estimates of 0.26 and 0.36 mSv/MBq in males and females, respectively. […] Effective dose was higher in females (0.065 mSv/MBq) relative to males (0.036 mSv/MBq).
compound,measurement,setting,value
"F[B-](F)(F)[18F] [^18F-TFB, ^18F-tetrafluoroborate]",estimated plasma concentration of TFB,[1],~0.1 µM
same,Effective Dose,[2]; females,0.065 mSv/MBq and 0.064 mSv/MBq
same,"Estimated absorbed radiation dose, Adrenals",[2]; females,0.012 mSv/MBq
same,"Estimated absorbed radiation dose, Brain",[2]; females,0.005 mSv/MBq
same,"Estimated absorbed radiation dose, Breasts",[2]; females,0.028 mSv/MBq
same,"Estimated absorbed radiation dose, Gallbladder Wall",[2]; females,0.022 mSv/MBq
same,"Estimated absorbed radiation dose, Heart Wall",[2]; females,0.030 mSv/MBq
same,"Estimated absorbed radiation dose, Kidneys",[2]; females,0.052 mSv/MBq
same,"Estimated absorbed radiation dose, Liver",[2]; females,0.033 mSv/MBq
same,"Estimated absorbed radiation dose, Lower Large Intestine Wall",[2]; females,0.015 mSv/MBq
same,"Estimated absorbed radiation dose, Lungs",[2]; females,0.014 mSv/MBq
same,"Estimated absorbed radiation dose, Muscle",[2]; females,0.011 mSv/MBq
same,"Estimated absorbed radiation dose, Osteogenic Cells",[2]; females,0.009 mSv/MBq
same,"Estimated absorbed radiation dose, Ovaries",[2]; females,0.020 mSv/MBq
same,"Estimated absorbed radiation dose, Pancreas",[2]; females,0.043 mSv/MBq
same,"Estimated absorbed radiation dose, Red Marrow",[2]; females,0.008 mSv/MBq
same,"Estimated absorbed radiation dose, Skin",[2]; females,0.004 mSv/MBq
same,"Estimated absorbed radiation dose, Small Intestine Wall",[2]; females,0.066 mSv/MBq
same,"Estimated absorbed radiation dose, Spleen",[2]; females,0.047 mSv/MBq
same,"Estimated absorbed radiation dose, Stomach Wall",[2]; females,0.184 mSv/MBq
same,"Estimated absorbed radiation dose, Thymus",[2]; females,0.005 mSv/MBq
same,"Estimated absorbed radiation dose, Thyroid",[2]; females,0.36 mSv/MBq
same,"Estimated absorbed radiation dose, Total Body",[2]; females,0.011 mSv/MBq
same,"Estimated absorbed radiation dose, Upper Large Intestine Wall",[2]; females,0.109 mSv/MBq
same,"Estimated absorbed radiation dose, Uterus",[2]; females,0.022 mSv/MBq
same,"Residence Time, Bone",[2]; females,3.1 ± 0.3 min
same,"Residence Time, Brain",[2]; females,1.3 ± 0.2 min
same,"Residence Time, Breast",[2]; females,2.8 ± 0.9 min
same,"Residence Time, Gallbladder",[2]; females,0.09 ± 0.04 min
same,"Residence Time, Intestines",[2]; females,13 ± 7 min
same,"Residence Time, Kidney",[2]; females,3.9 ± 0.8 min
same,"Residence Time, Liver",[2]; females,10 ± 2 min
same,"Residence Time, Lung",[2]; females,2.4 ± 0.2 min
same,"Residence Time, Muscle",[2]; females,26 ± 8 min
same,"Residence Time, Myocardium",[2]; females,1.8 ± 0.3 min
same,"Residence Time, Pancreas",[2]; females,0.58 ± 0.08 min
same,"Residence Time, Parotid",[2]; females,3.3 ± 1.2 min
same,"Residence Time, Spleen",[2]; females,1.6 ± 0.2 min
same,"Residence Time, Stomach",[2]; females,24 ± 12 min
same,"Residence Time, Thyroid",[2]; females,2.3 ± 0.9 min
same,"Residence Time, Bladder","[2]; females, bladder emptying model, 3.5 h voiding period",19 ± 4 min
same,"Estimated absorbed radiation dose, Urinary Bladder Wall","[2]; females, bladder voiding interval of 3.5 h",0.22 mSv/MBq
same,Effective Dose,[2]; males,0.036 mSv/MBq
same,"Estimated absorbed radiation dose, Adrenals",[2]; males,0.008 mSv/MBq
same,"Estimated absorbed radiation dose, Brain",[2]; males,0.004 mSv/MBq
same,"Estimated absorbed radiation dose, Breasts",[2]; males,0.002 mSv/MBq
same,"Estimated absorbed radiation dose, Gallbladder Wall",[2]; males,0.012 mSv/MBq
same,"Estimated absorbed radiation dose, Heart Wall",[2]; males,0.024 mSv/MBq
same,"Estimated absorbed radiation dose, Kidneys",[2]; males,0.049 mSv/MBq
same,"Estimated absorbed radiation dose, Liver",[2]; males,0.021 mSv/MBq
same,"Estimated absorbed radiation dose, Lower Large Intestine Wall",[2]; males,0.009 mSv/MBq
same,"Estimated absorbed radiation dose, Lungs",[2]; males,0.009 mSv/MBq
same,"Estimated absorbed radiation dose, Muscle",[2]; males,0.008 mSv/MBq
same,"Estimated absorbed radiation dose, Osteogenic Cells",[2]; males,0.008 mSv/MBq
same,"Estimated absorbed radiation dose, Pancreas",[2]; males,0.034 mSv/MBq
same,"Estimated absorbed radiation dose, Red Marrow",[2]; males,0.005 mSv/MBq
same,"Estimated absorbed radiation dose, Skin",[2]; males,0.003 mSv/MBq
same,"Estimated absorbed radiation dose, Small Intestine Wall",[2]; males,0.027 mSv/MBq
same,"Estimated absorbed radiation dose, Spleen",[2]; males,0.033 mSv/MBq
